This assay relates to BDF1 mice, B16 melanoma ip, median survival T/C. The experiment in a line: NCI In Vivo Anticancer Drug Screen. Data for tumor model B16 Melanoma (intraperitoneal) in B6D2F1 (BDF1) mice. Particulars: endpoint: median survival time, higher = longer survival. The method, boiled down:
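Transplantable tumor model; survival or tumor size measured; reported as T/C, treated over vehicle control.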

Where [1] appears, read: dose: 100.0 mg/kg/injection, schedule: Q04DX003 (ip), vehicle: Klucel (hydroxypropylcellulose) (HPC).
The mark [2] stands for this setting: dose: 200.0 mg/kg/injection, schedule: Q04DX003 (ip), vehicle: Klucel (hydroxypropylcellulose) (HPC).
Setting [3] is: dose: 400.0 mg/kg/injection, schedule: Q04DX003 (ip), vehicle: Klucel (hydroxypropylcellulose) (HPC).
The mark [4] stands for this setting: dose: 1.25 mg/kg/injection, schedule: Q01DX009 (ip), vehicle: saline.
Setting [5] is: dose: 2.5 mg/kg/injection, schedule: Q01DX009 (ip), vehicle: saline.
[6] abbreviates: dose: 5.0 mg/kg/injection, schedule: Q01DX009 (ip), vehicle: saline.
The mark [7] stands for this setting: dose: 100.0 mg/kg/injection, schedule: Q01DX009 (ip), vehicle: Klucel (hydroxypropylcellulose) (HPC).
Setting [8] is: dose: 200.0 mg/kg/injection, schedule: Q01DX009 (ip), vehicle: Klucel (hydroxypropylcellulose) (HPC).
Where [9] appears, read: dose: 400.0 mg/kg/injection, schedule: Q01DX009 (ip), vehicle: Klucel (hydroxypropylcellulose) (HPC).
[10] abbreviates: dose: 10.0 mg/kg/injection, schedule: Q01DX009 (ip), vehicle: saline.
[11] abbreviates: dose: 6.25 mg/kg/injection, schedule: Q01DX009 (ip), vehicle: Klucel (hydroxypropylcellulose) (HPC).
Setting [12] is: dose: 12.5 mg/kg/injection, schedule: Q01DX009 (ip), vehicle: Klucel (hydroxypropylcellulose) (HPC).
Setting [13] is: dose: 25.0 mg/kg/injection, schedule: Q01DX009 (ip), vehicle: saline with Tween-80.
Where [14] appears, read: dose: 50.0 mg/kg/injection, schedule: Q01DX009 (ip), vehicle: saline with Tween-80.
[15] abbreviates: dose: 50.0 mg/kg/injection, schedule: Q01DX009 (ip), vehicle: Klucel (hydroxypropylcellulose) (HPC).

“And” between values parts separate entries of the source, which are not always exact repeats. Equal values may be shown once. Inconclusive results and toxic doses are left out. Square brackets hold non-standard residues; d marks the D form. Peptide text beside a SMILES is read from it. ξ: configuration not given here. ξLac(3-iPr) = CC(C)CC(O)C(=O)O; NMeV = CN[CH](C(=O)O)C(C)C; NMeA = CN[CH](C)C(=O)O; βAla = NCCC(=O)O

As to `COc1cccc2c1C(=O)c1c(O)c3c(c(O)c1C2=O)C[C@@](O)(/C(C)=N/NC(=O)c1ccc(Cl)cc1)C[C@@H]3OC1CC(N)C(O)C(C)O1` (some centres not stated), the T/C was 155 % of control (dose: 1.0 mg/kg/injection, schedule: Q01DX009 (ip), vehicle: suspension in saline); 188 % of control (dose: 2.0 mg/kg/injection, schedule: Q01DX009 (ip), vehicle: suspension in saline); 155 % of control (dose: 2.5 mg/kg/injection, schedule: Q01DX001 (ip), vehicle: saline with Tween-80); 121 % of control (dose: 2.5 mg/kg/injection, schedule: Q01DX001 (ip), vehicle: water); 193 % of control (dose: 4.0 mg/kg/injection, schedule: Q01DX009 (ip), vehicle: suspension in saline); 204 % of control (dose: 5.0 mg/kg/injection, schedule: Q01DX001 (ip), vehicle: saline with Tween-80). The T/C is, setting by setting: (dose: 5.0 mg/kg/injection, schedule: Q01DX001 (ip), vehicle: water) 279 % of control; (dose: 8.0 mg/kg/injection, schedule: Q01DX009 (ip), vehicle: suspension in saline) 322 % of control; (dose: 10.0 mg/kg/injection, schedule: Q01DX001 (ip), vehicle: saline with Tween-80) 196 % of control; (dose: 10.0 mg/kg/injection, schedule: Q01DX001 (ip), vehicle: water) 154 % of control and 300 % of control; (dose: 20.0 mg/kg/injection, schedule: Q01DX001 (ip), vehicle: saline with Tween-80) 280 % of control; (dose: 20.0 mg/kg/injection, schedule: Q01DX001 (ip), vehicle: water) 235 % of control. Moreover, under “dose: 40.0 mg/kg/injection, schedule: Q01DX001 (ip), vehicle: saline with Tween-80”, the T/C was 205 % of control.
In the case of `CCC(=O)c1ccc(NC(C)=O)cc1`, the T/C runs as follows: under setting [1], 102 % of control; under setting [2], 96 % of control; under setting [3], 98 % of control.
In the case of `C[C@]12CC[C@H]3[C@@H](CCC4=C[C@@H](OC5OCC(OC6OC(CO)C(O)C(O)C6O)C(O)C5O)CC[C@@]43C=O)[C@@]1(O)CCC2C1=CC(=O)OC1` (some centres not stated), the T/C is 100 % of control under setting [4], 105 % of control under setting [5] and 89 % of control under setting [6].
Consider `Cc1ccc(NC(=O)Nc2cccc(Cl)c2)cc1C`, for which the T/C is, setting by setting: under setting [7], 86 % of control; under setting [1], 92 % of control; under setting [8], 86 % of control; under setting [2], 92 % of control; under setting [9], 86 % of control; under setting [3], 92 % of control.
As for `CCC(C)C1NC(=O)C2CCCN2C(=O)C(CC(C)C)OC(=O)CCNC(=O)C(C)N(C)C(=O)C(C(C)C)N(C)C1=O` (configuration not stated) (cyclo([ξLac(3-iPr)]PI[NMeV][NMeA][βAla]); configuration not given here), the T/C is 112 % of control under setting [4], 111 % of control under setting [5], 105 % of control under setting [6] and 107 % of control under setting [10].
Consider `O=C1C=C(C2OC(CO)C(O)C2O)C(=O)N1` (configuration not stated), for which the T/C is 107 % of control under setting [11]; 99 % of control and 102 % of control under setting [12].
Take `C/C=C1/C[C@@H](C)[C@@](C)(O)C(=O)OCC2=CC[N+]3([O-])CC[C@@H](OC1=O)[C@@H]23` (some centres not stated): the T/C reads like this: under setting [10], 102 % of control; (dose: 20.0 mg/kg/injection, schedule: Q01DX009 (ip), vehicle: saline) 106 % of control; (dose: 40.0 mg/kg/injection, schedule: Q01DX009 (ip), vehicle: saline) 113 % of control; (dose: 80.0 mg/kg/injection, schedule: Q01DX009 (ip), vehicle: saline) 102 % of control.
With `O=C(O)C1CCCCC1C(=O)Nc1ccc(F)cc1` (configuration not stated), the T/C by setting is: under setting [13], 105 % of control; under setting [14], 105 % of control; (dose: 100.0 mg/kg/injection, schedule: Q01DX009 (ip), vehicle: saline with Tween-80) 88 % of control and 96 % of control.
Take `FC(F)(F)C(=Cc1nc2ccccc2s1)C(F)(F)F`: the T/C under setting [11] was 103 % of control and the T/C under setting [12] was 100 % of control.
Regarding `Cc1cccc(CN2CCN(C(c3ccccc3)c3ccc(Cl)cc3)CC2)c1` (configuration not stated), the T/C (dose: 3.12 mg/kg/injection, schedule: Q04DX003 (ip), vehicle: Klucel (hydroxypropylcellulose) (HPC)) is 97 % of control; the T/C (dose: 6.25 mg/kg/injection, schedule: Q04DX003 (ip), vehicle: Klucel (hydroxypropylcellulose) (HPC)) is 101 % of control; the T/C under setting [12] is 86 % of control; the T/C (dose: 12.5 mg/kg/injection, schedule: Q04DX003 (ip), vehicle: Klucel (hydroxypropylcellulose) (HPC)) was 96 % of control; the T/C (dose: 25.0 mg/kg/injection, schedule: Q01DX009 (ip), vehicle: Klucel (hydroxypropylcellulose) (HPC)) was 86 % of control; the T/C (dose: 25.0 mg/kg/injection, schedule: Q04DX003 (ip), vehicle: Klucel (hydroxypropylcellulose) (HPC)) is 96 % of control. Besides, the T/C by setting is: under setting [15], 86 % of control; (dose: 50.0 mg/kg/injection, schedule: Q04DX003 (ip), vehicle: Klucel (hydroxypropylcellulose) (HPC)) 89 % of control; under setting [1], 88 % of control.
As for `C[n+]1ccc(Nc2ccc(NC(=O)c3ccc(Nc4cc[n+](C)c5ccc(N)cc45)cc3)cc2)cc1`, the T/C runs as follows: (dose: 0.5 mg/kg/injection, schedule: Q01DX009 (ip), vehicle: Klucel (hydroxypropylcellulose) (HPC)) 105 % of control; (dose: 1.0 mg/kg/injection, schedule: Q01DX009 (ip), vehicle: Klucel (hydroxypropylcellulose) (HPC)) 98 % of control and 101 % of control; (dose: 1.0 mg/kg/injection, schedule: Q02DX009 (ip), vehicle: Klucel (hydroxypropylcellulose) (HPC)) 100 % of control and 116 % of control; (dose: 2.0 mg/kg/injection, schedule: Q01DX009 (ip), vehicle: Klucel (hydroxypropylcellulose) (HPC)) 105 % of control and 108 % of control and 111 % of control; (dose: 2.0 mg/kg/injection, schedule: Q02DX009 (ip), vehicle: Klucel (hydroxypropylcellulose) (HPC)) 106 % of control and 112 % of control; (dose: 4.0 mg/kg/injection, schedule: Q01DX009 (ip), vehicle: Klucel (hydroxypropylcellulose) (HPC)) 103 % of control and 111 % of control and 120 % of control. For the same compound, the T/C (dose: 4.0 mg/kg/injection, schedule: Q02DX009 (ip), vehicle: Klucel (hydroxypropylcellulose) (HPC)) is 109 % of control and 112 % of control; the T/C (dose: 8.0 mg/kg/injection, schedule: Q01DX009 (ip), vehicle: Klucel (hydroxypropylcellulose) (HPC)) is 109 % of control and 123 % of control and 124 % of control; the T/C (dose: 8.0 mg/kg/injection, schedule: Q02DX009 (ip), vehicle: Klucel (hydroxypropylcellulose) (HPC)) is 107 % of control and 118 % of control; the T/C (dose: 16.0 mg/kg/injection, schedule: Q02DX009 (ip), vehicle: Klucel (hydroxypropylcellulose) (HPC)) is 98 % of control and 110 % of control.
In the case of `O=C(Nc1ccccc1)Oc1ccc(OCc2ccccc2)cc1`, the T/C (dose: 12.5 mg/kg/injection, schedule: Q01DX009 (ip), vehicle: saline with Tween-80) is 96 % of control; the T/C under setting [13] was 93 % of control; the T/C under setting [14] was 92 % of control.
For `CCCCCCCCCCCCCCCCOc1ccc(C(=O)CC(=O)OC)cc1`, the T/C is, setting by setting: under setting [7], 105 % of control; under setting [8], 94 % of control.
`Nc1nc(N=Nc2ccc(O)cc2)cc(=O)[nH]1`: the T/C was 109 % of control (dose: 100.0 mg/kg/injection, schedule: Q01DX009 (ip), vehicle: other); 105 % of control (dose: 200.0 mg/kg/injection, schedule: Q01DX009 (ip), vehicle: other); 87 % of control (dose: 400.0 mg/kg/injection, schedule: Q01DX009 (ip), vehicle: other).
On to `COc1cc2c(Cc3ccc(OC)c(OC)c3)[n+](Cc3ccccc3)ccc2cc1NCc1ccccc1`, for which the T/C by setting is: (dose: 0.78 mg/kg/injection, schedule: Q01DX009 (ip), vehicle: saline with Tween-80) 105 % of control; (dose: 1.56 mg/kg/injection, schedule: Q01DX009 (ip), vehicle: saline with Tween-80) 106 % of control; (dose: 3.12 mg/kg/injection, schedule: Q01DX009 (ip), vehicle: saline with Tween-80) 110 % of control; (dose: 6.25 mg/kg/injection, schedule: Q01DX009 (ip), vehicle: saline with Tween-80) 110 % of control.
For the compound `CNC(Cc1ccccc1)c1ccc(OC)c(OC)c1` (configuration not stated), the T/C runs as follows: under setting [7], 100 % of control; under setting [8], 100 % of control; under setting [9], 103 % of control.
As to `CC(C)N(C(=O)COc1ccc(Cl)cc1)c1ccccc1`, the T/C was 86 % of control under setting [15], 106 % of control under setting [7] and 86 % of control under setting [8].

Source of the values: PubChem BioAssay AID192 (DTP/NCI, 2004).
